Results published in the NIST ThermoML archive (doi:10.1016/j.fluid.2015.10.047).

What was measured:
[1] = Crystal; DTA
[2] = Molar enthalpy of transition or fusion; settings: Crystal; DSC
[3] = molar heat capacity at constant pressure; settings: 101.33 kPa, Large sample (1 g) DSC

CO[C@H]1O[C@H](CO)[C@@H](O)[C@H](O)[C@H]1O [methyl-α-D-glucopyranoside]
Settings	Molar enthalpy of transition or fusion [kJ/mol]	Normal melting temperature [°C]
[1]	–	169.18
[2]	28	–

[3]
Settings	molar heat capacity at constant pressure [J/K/mol]
298.15 K, Crystal	291.48
303.15 K, Crystal	294.68
308.15 K, Crystal	297.16
313.15 K, Crystal	300.15
318.15 K, Crystal	302.5
323.15 K, Crystal	305.37
328.15 K, Crystal	308.34
333.15 K, Crystal	311.81
338.15 K, Crystal	315.04
343.13 K, Crystal	317.77
348.15 K, Crystal	320.54
353.15 K, Crystal	323.46
358.15 K, Crystal	327.84
363.15 K, Crystal	331.47
368.15 K, Crystal	334
373.15 K, Crystal	336.83
378.15 K, Crystal	339.69
383.15 K, Crystal	342.52
388.15 K, Crystal	345.56
393.15 K, Crystal	348.77
398.15 K, Crystal	352.33
403.15 K, Crystal	356.35
408.15 K, Crystal	360.93
413.15 K, Crystal	366.26
418.15 K, Crystal	369.54
423.15 K, Crystal	372.62
428.15 K, Crystal	376.07
433.15 K, Crystal	379.37
453.15 K, Liquid	510.58
458.15 K, Liquid	511.8
463.15 K, Liquid	513
468.15 K, Liquid	514.17
473.15 K, Liquid	515.44
478.15 K, Liquid	516.62
483.15 K, Liquid	517.93
488.15 K, Liquid	519.22
493.15 K, Liquid	520.14
498.15 K, Liquid	521.17
503.15 K, Liquid	522.4
508.15 K, Liquid	523.64
513.15 K, Liquid	524.87
